Assay results published in patent publication US7560591B2, “Benzamidine derivatives having anti-inflammatory and immunosuppressive activity” (Rotta Research Laboratorium S.p.A., priority 2001, dated 2009).

What was measured:
[1] = tested on: neutral proteases (metalloproteases); experiment: Inhibition of neutral proteases (metalloproteases) in supernatant of IL-1β-stimulated rabbit joint chondrocytes, azocoll substrate; format: biochemical; conditions: IL-1β 1 ng/ml, 48 hours, APMA-activated supernatant, read-out: MP (metalloproteases) IC50
Experimental: a) The activity in inhibiting the formation of NO, measured as NO2^− (nitrites), PGE2, and neutral protease, was investigated in vitro on culture broths of rabbit joint chondrocytes stimulated by cytokine IL-1β (1 ng/ml) for 48 hours. For the preparation of the chondrocytes, the method described by Berenbaum et al [FEBS Letters 340, 51-55 (1994)] was followed. Briefly, fragments of cartilage removed under sterile conditions from the heads of rabbit shoulder, hip and knee joints were chopped finely and digested at 37° C. by hyaluronidase, trypsin and collagenase solutions, giving rise, after filtration on sterile gauze and centrifuging at 600×g and suitable dilution with 10% DMEM-FCS, to a concentration of approximately 1×10^5 cells per well. The cells were kept in these conditions until confluence (about 15 days), the broth being changed every 3 days. At this point, the products under test, dissolved in the medium, were added to each test sample and, after 20 minutes, 350 μl IL-1β was added in order to have a final concentration of 1 ng/ml. The duration of the stimulation was 48 hours at 37° C. (incubation air-CO2 7%). Measurement of the nitrites, as described by Green et al. [Anal. Biochem. 126, 131-138 (1982)], and of the PGE2s by RIA measurement, was then performed on the cell supernatant fluid. The measurement of the neutral proteases was performed in the cell supernatant fluid containing the p-aminophenyl mercury acetate (APMA) activator with the use of azocoll as the substrate and with incubation at 37° C. for 17 h as described by Chavira et al. [Anal. Biochem. 136, 446-450 (1984)]. In order to evaluate the direct inhibitory effect of the compounds under test on the hydrolytic activity of the cell supernatant fluid, they were added to the supernatant fluid containing the proteases induced by IL-1β and already activated by AMPA.
The results obtained are shown in Table 3, in which the IC50, that is, the concentration (micromolar) of antagonist which can inhibit the formation of nitrites, PGE2s, and neutral proteases, respectively, by 50% relative to the control group, that is, to the cells stimulated with IL-1β but without the addition of antagonists, is given for some of the compounds of the invention already given by way of example in Table 2.

plasma TNFα = experiment: Plasma TNFα concentration in rats after stimulation with LPS (endotoxic shock); format: in vivo, rat; conditions: for TNFα (ng/ml ± SD): plasma 90 minutes after challenge
Experimental: c) The immunosuppressive activity of Compound I-4 was evaluated in an in vivo test in the rat, in which a lipopolysaccharide (LPS) of bacterial origin, injected i.p. at a dose of 6 mg/kg, induced a shock characterised by urgent diarrhoea accompanied by a large increase in the plasma TNFα concentration.
Blood was taken from the animals which were killed 90 minutes after the challenge and the concentration of TNFα in the plasma was determined by Elisa (Amersham Kit cod. RPN2734).

[2] = tested on: colitis induced by TNBS in rats; experiment: Colitis induced by TNBS in rats; format: in vivo, rat; conditions: for Weight of the colon: 48 hours after TNBS; for Weight of the colon / Myeloperoxidase activity / iNOS activity / Macroscopic damage (MDS): mean ± SD; for Myeloperoxidase activity / iNOS activity: colon tissue; for Macroscopic damage (MDS): score 0-10
Source text: The combined capability of some of the compounds of the invention to inhibit both iNOS and the synthesis of TNFα has led to their activity being checked in an experimental model of colitis caused by a chemical hapten, trinitrobenzene-sulphonic acid (TNBS), which can bind to the tissue proteins and stimulate cell-mediated immunity. The intrarectal administration of TNBS in association with ethanol causes acute inflammation characterised by extensive ulceration and necrosis.
A distal colitis was therefore induced in the rat by intrarectal instillation of TNBS (40 mg/kg) dissolved in 50% ethanol (0.5 ml/rat). The drugs were administered orally twice a day on days −2; −1; 0; +1 and the animals were killed 48 hours after the administration of TNBS.
The parameters examined were: total weight of the colon (g), macroscopic tissue damage “score”, measurement of the tissue myeloperoxidase (MPO) activity, which is a marker of the infiltration of the neutrophiles, and measurement of the iNOS activity (pmoles/g tissue/min.).
The macroscopic score (MDS) was taken on about 10 cm of colon in accordance with the following arbitrary scale:
The tissue MPO measurement was performed according to Velgara et al., JPET 1994. The measurement of the tissue nitrites was performed by applying the method described above for the chondrocytes to the supernatant fluid of the tissue homogenate.
Compound I-4, administered in doses of 5, 10 and 20 mg/kg, and compound I-11 were examined, by administering them orally, in comparison with sulphasalazine (250 mg/kg) and 5-aminosalicylic acid (5-ASA) (100 mg/kg), 2 drugs which are widely used in the treatment of ulcerative colitis.

[3] = 50 μg/kg ICV + LPS 6 mg/kg I.P.

Structure (SMILES): CCCCCNC(=S)Nc1ccc(NC(C)=N)cc1 [Compound I-4, N-[4-(N-acetamidine)phenyl]-N′-pentyl Thiourea]
- IC50 [1]: 6.6 µM
- Inhibition (%) of plasma TNFα (plasma TNFα; [3]): 96.2%
- TNFα (ng/ml ± SD) (plasma TNFα; [3]): 2.3 ± 1.2 ng/mL
- TNFα (ng/ml ± SD) (plasma TNFα; 10 mg/kg IV + LPS 6 mg/kg I.P.): 12.9 ± 7.2 ng/mL
- TNFα (ng/ml ± SD) (plasma TNFα; 20 mg/kg OS + LPS 6 mg/kg I.P.): 30.6 ± 1.0 ng/mL
- inhibition at 10 mg/kg (plasma TNFα; Rattus norvegicus, 10 mg/kg IV + LPS 6 mg/kg I.P.): 78.9%
- Weight of the colon ([2]; 5 mg/kg orally twice a day): 2.2 ± 0.2 g
- Myeloperoxidase activity ([2]; 5 mg/kg orally twice a day): 5.5 ± 1.4 UMPO/g/min
- iNOS activity ([2]; 5 mg/kg orally twice a day): 131.7 ± 91.9 pmol/g/min
- Macroscopic damage (MDS) ([2]; 5 mg/kg orally twice a day): 5.0 ± 0.9
- Weight of the colon ([2]; 10 mg/kg orally twice a day): 2.1 ± 0.3 g
- Myeloperoxidase activity ([2]; 10 mg/kg orally twice a day): 5.0 ± 1.7(*) UMPO/g/min
- iNOS activity ([2]; 10 mg/kg orally twice a day): 98.6 ± 60.0 pmol/g/min
- Macroscopic damage (MDS) ([2]; 10 mg/kg orally twice a day): 4.4 ± 0.8(*)
- Weight of the colon ([2]; 20 mg/kg orally twice a day): 2.0 ± 0.2 g
- Myeloperoxidase activity ([2]; 20 mg/kg orally twice a day): 5.1 ± 1.2(*) UMPO/g/min
- iNOS activity ([2]; 20 mg/kg orally twice a day): 61.5 ± 31.4 pmol/g/min
- Macroscopic damage (MDS) ([2]; 20 mg/kg orally twice a day): 3.5 ± 0.8(*)
- reduction of macroscopic damage ([2]; doses of 10 and 20 mg/kg): about 50%
- reduction of the increase in iNOS activity induced by TNBS ([2]; doses of 10 and 20 mg/kg): 50%
- reduction of the increase in tissue MPO activity induced by TNBS ([2]; doses of 10 and 20 mg/kg): 40%
